Format in all cases: cell-based, Arabidopsis thaliana
In test [1] the test system is guard cells of x-luc1 and x-luc9 ecto-luciferase lines. Briefly: Ecto-luciferase luminescence imaging of extracellular ATP in epidermal peels. From the text:
Ecto-luciferase Construct and Plant Transformation: The nucleotide sequence for the 24 amino acid, cleavable signal peptide from the Brassica pollen coat protein, S-locus cysteine-rich protein (SCR13; AF195626) was used to target luciferase for secretion (Schopfer et al., 1999). The signal peptide was incorporated at the N-terminus of the luciferase gene by PCR and the SCR13 signal peptide modified luciferase PCR product was then ligated into the binary vector pLBJ21. This construct was then transformed into Agrobacterium tumefaciens strain GV3101 (pMP90) and then transformed into Arabidopsis plants (Col-0) using the floral dipping method (Clough and Bent, 1998). Transgenic plants were selected by planting on solidified Murashige and Skoog (MS) medium (4.3 g/L Murashige and Skoog salts (Sigma), 0.5% (w/v) MES, and 1.0% (w/v) agar, raised to pH 5.7 with 5 M KOH) containing 50 μg/mL kanamycin. Segregation of T3 generation on kanamycin plates was analysed in order to obtain homozygous lines. Plants showing kanamycin resistance were checked for luciferase activity by growing transgenic plants in MS medium for 10 days and then transferring the whole seedlings into test tubes. Luminescence measurements were performed by placing the test tubes in the light-tight housing of the luminometer reader (Dynatech). Experimental solutions with luciferin substrate with and without 1 mM ATP were injected by an automatic injector, and after 3 seconds counting started at 0.2 second time intervals.
Imaging of Luminescence in Ecto-luciferase Plants: Ecto-luciferase seeds were surface-sterilized, stratified in the dark in 4° C. for at least three days and then planted directly on a cellophane membrane placed upon solidified MS with 1.0% (w/v) agar. Planted plates were placed upright in a culture chamber and grown at 23° C. under 24-h fluorescent light for 7 days. Plates were then reoriented so that the solidified MS medium was at the bottom of the plate and the seedling was able to grow up into the empty space of the petri dish. Seedlings were then allowed to mature for up to 4 weeks under identical temperature and light settings. For “dark” studies petri dishes of 3-4 week old plants were placed in a dark chamber for 24 hours prior to use in the studies.
Mature basal leaves were excised from x-luc1 and x-luc9 plants 3-4 weeks old. Peels were taken and then immediately floated with the abaxial side up in 40 μL, of Arabidopsis leaf buffer on a microscope slide and the chemical being tested in either light or dark conditions depending on the experimental setup. The placing of the peels within their respective solution was considered time zero. Peels were treated for a minimum of 5 minutes before luciferin and flash buffer were added to the solution. […] Luminescence was integrated over 120 seconds, High Gain, Read Out set to slow, using 4×4 pixel binning with Cosmic Suppression on, Background Correction off, and Flatfield Correction off with the filter set to Photo.
All luminescence analysis was conducted using the indiGO Analysis Software (version 2.0.0.26). All images consisted of a photographic image in grayscale with an overlaid luminescence image in pseudo color. […]

The subject of test [2] is stomata (guard cells) in whole leaves. Put plainly: Stomatal aperture closure studies, whole leaves in the light. Conditions: for effect on ABA-induced stomatal closure / effect on ATPγS-induced stomatal closure: co-incubation. As for the experimental part:
(§1) Stomatal Aperture Studies: Arabidopsis thaliana ecotypes Columbia (Col-0) and Wassilewskija (WS) were used as wild types in this study. Col-0, nia1nia2, atrbohD/F, R2-4A and WS plants were all grown on autoclaved Metro-Mix 200 soil at 22° C. under continuous light. The mutant seeds nia1nia2 nia2-5; CS 2356; Col-0 background) were obtained from Dr. N. M. Crawford (University of California at San Diego) and the mutant seeds atrbohD/F (Col-0 background) were obtained from Dr. J. M. Kwak (University of Maryland). The RNAi mutant apyrase line (R2-4A) is in WS background, so WS ecotype was used as the control wild type for these studies. Leaves from 2 to 3 week old Col-0 plants, or R2-4A and WS plants treated with 4 μM estradiol for 1 week after development of mature basal leaves were used for peel and whole leaf studies. Plants were placed in the dark and watered 24 h before an study. For opening studies, plants were used immediately after 24 h dark treatment and all treatments were done in the dark except for the light treated leaves or peels, thus the control stomata are dark controls. For closure studies, plants were placed in the light 3 h before an study to induce stomatal opening and all treatments were done in the light, thus the control stomata are light controls. For peel studies, epidermal peels were made from the underside of the leaf and treatments were applied to the peels for 1 h. For whole leaf studies, leaves were removed and treatments were applied for 2 h. For each treatment, about 3 or 4 peels collected from different leaves or 3 or 4 different leaves of at least two different plants were floated with the abaxial side up in petri dishes on 3 mL of Arabidopsis leaf buffer consisting of 10 mM KCl, 25 mM MES pH 6.15 (Melotto et al., 2006) and the chemical being tested. For whole leaf studies peels were collected after the treatment.
(§2) For studies testing the effects of ATPγS, ADPγS, AMPS, RB2, and PPADS (Sigma, St. Louis, Mo., USA) 20 mM stocks were made by dissolving the compounds in de-ionized water. For studies testing the effects of apyrase inhibitors, 7.5 mg/mL of NGXT191 and of inhibitor #13 (Windsor et al., 2002) was dissolved in dimethyl sulfoxide (DMSO) and then applied at a dilution of […] for a final concentration of 0.1% DMSO. ABA (Sigma, St. Louis, Mo., USA) was dissolved in ethanol in 10 mM stocks and then applied at a dilution of 1:1000. The stocks were stored at −20° C. while not in use. The production of the anti-AtAPY1 antibodies used is described by Steinebrunner et al. (2003). The crude immune and pre-immune sera were purified using protein A-Sepharose following the protocol described by Martin (1982) with the slight modification that the buffers used were azide-free. The protein-A purified sera were both used at a 1:1000 dilution in leaf stomatal aperture studies. The concentration of the immune and pre-immune sera, determined by Bradford assay (Bio-Rad), was 10.2 μg/mL and 7.7 μg/mL, respectively.
(§3) After treatment, photos of stomata were taken using a light microscope at 20×. Stomatal aperture width was measured using the image processing software ImageJ. Typically, photos were taken of 70 to 90 stomata per treatment of which only 50 stomata were measured for each treatment. For each treatment the ratio of closed stomata (width of 0) to open stomata was determined for all stomata imaged and this ratio was maintained in the 50 stomata that were measured for each treatment. Data shown uses apertures determined as width/length, however data in all studies also obtained as width only and generally width/length and width only data are in agreement with each other. Statistical significance of the measurements for the treatments was determined using the Student's t test in Microsoft Excel.

The subject of test [3] is stomata (guard cells) in epidermal peels. Put plainly: Stomatal aperture closure studies, epidermal peels in the light. As for the experimental part: as §1, §2, §3
Test [4] has the same test system. Put plainly: Stomatal aperture opening studies, epidermal peels in the dark. As to the method: as §1, §2, §3
In the next test the test system is H2O2 in guard cells. Put plainly: Detection and quantification of H2O2 (H2DCFDA fluorescence). The conditions noted are these: co-incubation (data not shown). As to the method:
Detection and Quantification of H2O2 and NO: Col-0 plants were grown on soil for 2 to 4 weeks under continuous light at 21° C. Plants were placed in the dark for 24 h to ensure closure and then transferred to the light for 1 h. After 1 h in the light, mature basal leaves were excised and blended in a Waring blender on the low setting for approximately 10 s to isolate epidermal tissues, and the tissues were placed in 3 mL of 30 mM KCl, 10 mM Mes-KOH, pH 6.16 buffer in light for 2 h (Pei et al., 2000; Murata et al., 2001). DAF-2 DA and H2DCFDA were dissolved in DMSO to produce 5 mM and 10 mM stock solutions, respectively, and these were stored at −20° C. in 30 μL, aliquots. Fifty μM H2DCFDA or 15 μM DAF-2 DA was added to the medium in the dark, and after 30 min, 10 μM ABA, 200 μM ATPγS, or buffer (ATP control) was also added to the medium in the dark for 30 min. Peels were then rinsed by decanting the treatment solution and adding 3 mL fresh leaf buffer to the peels. Peels were rinsed twice as described. A peel from each of the three treatments (ABA, ATPγS and buffer) were placed on the same microscope slide and observed sequentially. A second study was staggered 30 to 45 min after the first by loading the H2DCFDA or DAF-2 DA dye to new peels 30 to 45 min after the first round of dye was added. Confocal laser scanning microscopy (CLSM) was performed with a Leica SP2 AOBS confocal microscope (Leica Microsystems, Bannockburn, Ill., USA). Laser power was set at 15%, with an excitation of 488 nm and an emission of 525 nm. A series of 0.5 μm optical sections with average intensity projection along the z axis were collected and made into one 2D image with greater focal depth. All images were obtained with the same software scanning settings including detector gain and laser intensity settings.

In test [5] the test system is stomata (guard cells) in whole leaves. Briefly: Stomatal aperture opening studies, whole leaves in the dark. As for the experimental part:
as §1
as §2, with “The crude immune and pre-immune sera were purified using protein A-Sepharose following the protocol described by Martin (1982) with the slight modification that the buffers used were azide-free. The protein-A purified sera were both used at a 1:1000 dilution in leaf stomatal aperture studies.” left out
as §3

[6] abbreviates: co-incubation, epidermal peel studies (data not shown).
The mark [7] stands for this setting: co-incubation, 30 μM, leaves (data not shown).
Setting [8] is: 30 μM, whole leaf studies (not shown).

Consider `Nc1ncnc2c1ncn2[C@@H]1O[C@H](COP(=O)(O)OP(O)(O)=S)[C@@H](O)[C@H]1O` [ADPβS], for which, in test [1] (200 μM, 5 min, open stomata (data not shown)), the “ecto-luciferase luminescence of stomata, average” value is 2.75 cps. The “threshold for nucleotide-induced stomatal closure” value in test [2] (whole leaf studies, compared with peel studies (150 to 200 μM; not shown)) is given as “the same as found in the peel studies”; in test [3] (epidermal peel studies, light), “same threshold”.
In the case of `Nc1ncnc2c1ncn2[C@@H]1O[C@H](COP(O)(O)=S)[C@@H](O)[C@H]1O` [AMPS], the “effect on stomatal aperture” value in test [4] (15 μM, darkness, 1 h) is listed as “no effect on stomatal aperture”; in test [3] (200 μM, dose-response tests, summary statement), “neither 15 μM nor 200 μM AMPS has any effect”; in test [3] (250 μM, epidermal peels, light, 1 h), “no effect on stomatal aperture”.
As to `Nc1ncnc2c1ncn2[C@@H]1O[C@H](COP(=O)(O)OP(=O)(O)OP(=O)(O)O)[C@@H](O)[C@H]1O` [ATP], the “ecto-luciferase luminescence, average” value in test [1] (1 mM, 5 min or longer, x-luc1 and x-luc9 lines, centered around guard cells) is 4.75 counts per second (cps). Besides, the “ecto-luciferase luminescence of pavement cells, average” value in test [1] (1 mM, pavement cells of the epidermis) turned out to be 1.35 cps.
As to `CC(=O)N[C@@H](CS)C(=O)O` [NAC, N-acetyl-L-cysteine], in the test with H2O2 in guard cells, the “effect on ABA- and ATPγS-induced H2DCFDA fluorescence” value was “blocked”.
With `Cc1cccc(NS(=O)(=O)c2ccc(-c3ccccc3)cc2)c1` [NGXT 191, N-(3-methylphenyl)-4-biphenylsulfonamide], the “effect on stomatal aperture” value in test [3] (7.5 μg/mL, epidermal peels, light, 1 h) is recorded as “induced stomatal closure”.
As for `Cc1nc(N=Nc2ccc(S(=O)(=O)O)cc2S(=O)(=O)O)c(COP(=O)(O)O)c(C=O)c1O` [PPADS, pyridoxalphosphate-6-azo-phenyl-2′,4′-disulphonic acid], the “effect on stomatal aperture” value in test [4] (100 μM alone, opening studies) is listed as “no effect alone”; in test [2] (100 μM alone, leaves, light), “no effect alone”; in test [3] (100 μM alone, epidermal peels, light), “no effect by itself”. In addition, in test [4] (co-incubation, 100 μM), the “effect on light-induced stomatal opening” value is given as “partially blocked”. For the same compound, in test [4] (co-incubation, 100 μM, with 15 μM ATPγS), the “effect on ATPγS-induced stomatal opening” value was “blocked”. Also, the “effects in opening studies compared with epidermal peels” value in test [5] (whole leaves (data not shown), alone, on ATPγS-induced and on light-induced opening) was “the same effects”. For the same compound, the “effect on ABA-induced stomatal closure” value is “partially blocked” in test [2] (100 μM, with 10 μM ABA, leaves) and “partially block” in test [3] (setting [6]). In addition, the “effect on ATPγS-induced stomatal closure” value in test [2] (100 μM, with 200 μM ATPγS, leaves) is “blocked”; in test [3] (setting [6]) it was “block”. For the same compound, in test [3] (co-incubation, 100 μM, with 7.5 μg/mL NGXT 191, epidermal peels), the “effect on NGXT 191-induced stomatal closure” value is recorded as “blocked”.
Consider `Nc1c(S(=O)(=O)O)cc(Nc2ccc(Nc3nc(Cl)nc(Nc4cccc(S(=O)(=O)O)c4)n3)c(S(=O)(=O)O)c2)c2c1C(=O)c1ccccc1C2=O` [RB2, reactive blue 2], for which the “effect on stomatal aperture” value in test [5] (30 μM alone, opening studies, leaves) is listed as “no effect by itself”. Moreover, in test [5] (setting [7]), the “effect on ATPγS-induced stomatal opening” value is on record as “block” and the “effect on light-induced stomatal opening” value is reported as “partially block”. In addition, the “effect on stomatal aperture” value in test [2] (30 μM alone, closure studies, leaves) is “no effect alone”. Moreover, in test [2] (setting [8]), the “effect on ABA-induced stomatal closure” value is listed as “partially block” and the “effect on ATPγS-induced stomatal closure” value was “block”.
As to `O=C(Nc1cccc([N+](=O)[O-])c1)c1cccc(S(=O)(=O)Nc2ccc(Br)cc2)c1` [apyrase inhibitor #13, 3-{[(4-bromophenyl)amino]sulfonyl}-N-(3-nitrophenyl)benzamide], the “effect on stomatal aperture” value in test [2] (7.5 μg/mL, whole leaves (data not shown)) is given as “caused stomatal closure”.

Values taken from patent US20140123342A1, “Regulation of Stomatal Apertures by Apyrases and Extracellular Nucleotides” (BOARD OF REGENTS, THE UNIVERSITY OF TEXAS SYSTEM, priority 2011, published 2014).
